Measured values: patent US9452986B2, “6-heteroaryloxy- or 6-aryloxy-quinoline-2-carboxamides and method of use” (AbbVie Inc., priority 2014, dated 2016)
Like-named read-outs stand apart in the source and are kept apart here.

Experiments:
osteoarthritic rats = assay: Osteoarthritic (OA) pain induced by sodium monoiodoacetate (MIA), hind limb grip force; assay type: in vivo, rat; settings: for inhibition in vivo at 30 mg/kg / inhibition in vivo at 10 mg/kg: Rattus norvegicus, 480 h, read-out: OA MPE; for inhibition in vivo at 10 mg/kg: OA dose 10 mg/kg
Outline: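 Male Sprague Dawley rats (150-175 g) received a single unilateral intra-articular knee injection of MIA (3 mg/rat) and were tested 20 days later. Peak hind limb grip force (CFmax, g force/kg body weight, mean of two trials) was scored blinded. % effect set vehicle as 0% and age-matched naïve rats as 100%.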

[1] = system: spinal nerve ligated rats; assay: Rat spinal nerve ligation (SNL) model of neuropathic pain, paw withdrawal threshold; assay type: in vivo; settings: read-out: SNL MPE
Text: Rat Spinal Nerve Ligation (SNL) Model of Neuropathic Pain.
The male Sprague Dawley rats (Charles River Laboratories, Wilmington, Mass.), weighing 150-175 g at the time of surgery, were placed under isoflurane anesthesia and a 1.5 cm incision was made dorsal to the lumbosacral plexus. The paraspinal muscles (left side) were separated from the spinous processes, the left L5 and L6 spinal nerves isolated, and tightly ligated with 5-0 silk suture distal to the dorsal root ganglion. Care was taken to avoid ligating the L4 spinal nerve. Following spinal nerve ligation, a minimum of 7 days of recovery and no more than 3 weeks was allowed prior to the behavioral testing (mechanical sensitivity). Only rats with threshold scores ≦4.5 g were considered allodynic and utilized in pharmacological experiments.
Mechanical sensitivity was measured using calibrated von Frey filaments (Stoelting, Wood Dale, Ill.). […] The von Frey filaments were presented perpendicularly to the plantar surface of the selected hind paw, and then held in this position for approximately 8 seconds with enough force to cause a slight bend in the filament. Positive responses included an abrupt withdrawal of the hind paw from the stimulus, or flinching behavior immediately following removal of the stimulus. […] A percent maximal possible effect (% MPE) of testing compound was calculated according to the formula: (Log [compound−treated threshold]−Log [vehicle−treated threshold])/(Log [maximum threshold]−Log [vehicle−treated threshold])×100%, where the maximum threshold was equal to 15 g.
The animals were housed in Association for Assessment and Accreditation of Laboratory Animal Care (AAALAC) approved facilities at AbbVie Inc. in a temperature-regulated environment under a controlled 12-hour light-dark cycle, with lights on at 6:00 a.m. Food and water were available ad libitum at all times except during testing. All testing was done following procedures outlined in protocols approved by AbbVie Inc.s' Institutional Animal Care and Use Committee.

recombinant human Nav1.7 = recombinant human Nav1.7 (Homo sapiens (Human), UniProt Q15858); assay: FRET-based membrane potential assay, recombinant human sodium channel Nav1.7; assay type: cell-based; settings: read-out: FRET-Membrane Potential Nav1.7 IC50
Outline: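 Channel activation used veratridine at its EC80, set by a dilution curve each experiment, together with Leiurus scorpion venom, added 3 min after compound. Membrane-potential ratio signals from FLIPR Tetra in HEPES-buffered HBSS were fitted to a four-parameter Hill equation for percent inhibition and IC50.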

recombinant human Nav1.8 = recombinant human Nav1.8 (Homo sapiens (Human), UniProt Q9Y5Y9); assay: FRET-based membrane potential assay, recombinant human sodium channel Nav1.8; assay type: cell-based
[2] = OA dose 30 mg/kg, rat, 20 days following MIA injection, hind limb grip force
[3] = SNL dose 100 mg/kg, rat, von Frey paw withdrawal threshold
[4] = HEK293 cells stably expressing recombinant human Nav1.7, veratridine + scorpion venom depolarization
[5] = rat, 20 days following MIA injection, hind limb grip force
[6] = HEK293 cells stably expressing recombinant human Nav1.8, veratridine + scorpion venom depolarization

recombinant human Nav1.7, sequence (Q15858 whole entry): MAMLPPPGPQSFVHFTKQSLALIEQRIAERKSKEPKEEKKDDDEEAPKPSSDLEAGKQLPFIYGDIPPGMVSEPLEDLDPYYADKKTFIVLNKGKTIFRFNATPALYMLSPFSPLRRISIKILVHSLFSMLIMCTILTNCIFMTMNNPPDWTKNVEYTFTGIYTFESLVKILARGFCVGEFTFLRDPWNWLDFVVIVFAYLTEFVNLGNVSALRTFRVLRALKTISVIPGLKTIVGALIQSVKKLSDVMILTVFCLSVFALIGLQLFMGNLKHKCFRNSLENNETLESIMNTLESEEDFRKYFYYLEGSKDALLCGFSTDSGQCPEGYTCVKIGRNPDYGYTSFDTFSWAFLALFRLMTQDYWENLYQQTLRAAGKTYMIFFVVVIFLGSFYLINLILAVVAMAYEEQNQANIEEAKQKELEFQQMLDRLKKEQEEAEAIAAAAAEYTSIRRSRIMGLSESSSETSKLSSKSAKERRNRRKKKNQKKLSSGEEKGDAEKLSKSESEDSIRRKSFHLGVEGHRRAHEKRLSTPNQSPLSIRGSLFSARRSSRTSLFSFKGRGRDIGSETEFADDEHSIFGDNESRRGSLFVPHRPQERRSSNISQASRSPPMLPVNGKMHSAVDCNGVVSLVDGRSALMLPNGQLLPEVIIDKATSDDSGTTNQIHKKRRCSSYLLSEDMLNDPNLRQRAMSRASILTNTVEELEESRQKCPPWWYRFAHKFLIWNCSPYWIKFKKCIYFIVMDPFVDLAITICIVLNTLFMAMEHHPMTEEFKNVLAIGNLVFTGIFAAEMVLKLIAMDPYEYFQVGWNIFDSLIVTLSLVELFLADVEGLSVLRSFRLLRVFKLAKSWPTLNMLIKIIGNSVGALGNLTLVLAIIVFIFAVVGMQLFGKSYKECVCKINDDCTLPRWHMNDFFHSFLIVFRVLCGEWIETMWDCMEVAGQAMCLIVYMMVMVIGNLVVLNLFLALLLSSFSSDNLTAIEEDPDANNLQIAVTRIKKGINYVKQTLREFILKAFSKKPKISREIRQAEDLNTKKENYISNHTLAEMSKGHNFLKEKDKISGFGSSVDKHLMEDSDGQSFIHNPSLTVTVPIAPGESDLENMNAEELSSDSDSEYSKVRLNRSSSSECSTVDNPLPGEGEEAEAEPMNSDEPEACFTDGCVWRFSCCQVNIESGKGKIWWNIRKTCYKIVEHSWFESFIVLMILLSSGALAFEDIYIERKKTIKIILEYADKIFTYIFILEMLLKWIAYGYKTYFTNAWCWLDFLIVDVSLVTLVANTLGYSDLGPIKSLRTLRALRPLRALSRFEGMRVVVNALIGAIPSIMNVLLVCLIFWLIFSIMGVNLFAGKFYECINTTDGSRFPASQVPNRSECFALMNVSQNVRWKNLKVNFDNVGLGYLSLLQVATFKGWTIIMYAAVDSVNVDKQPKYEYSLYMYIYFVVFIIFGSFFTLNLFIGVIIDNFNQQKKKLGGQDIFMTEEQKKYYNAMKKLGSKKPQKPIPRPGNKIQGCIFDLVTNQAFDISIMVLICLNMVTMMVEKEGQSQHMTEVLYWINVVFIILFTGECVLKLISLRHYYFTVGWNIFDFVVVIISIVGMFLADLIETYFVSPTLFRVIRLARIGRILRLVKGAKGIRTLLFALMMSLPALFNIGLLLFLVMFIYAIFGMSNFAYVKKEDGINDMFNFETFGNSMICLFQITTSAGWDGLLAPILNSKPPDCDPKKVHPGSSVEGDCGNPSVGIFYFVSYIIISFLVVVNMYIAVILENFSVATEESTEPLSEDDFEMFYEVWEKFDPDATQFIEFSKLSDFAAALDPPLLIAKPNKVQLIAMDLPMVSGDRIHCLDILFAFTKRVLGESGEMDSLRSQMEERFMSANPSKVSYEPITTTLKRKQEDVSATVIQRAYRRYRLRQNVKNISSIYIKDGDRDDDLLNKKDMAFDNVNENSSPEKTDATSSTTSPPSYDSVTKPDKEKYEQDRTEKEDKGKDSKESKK
recombinant human Nav1.8, sequence (Q9Y5Y9 whole entry): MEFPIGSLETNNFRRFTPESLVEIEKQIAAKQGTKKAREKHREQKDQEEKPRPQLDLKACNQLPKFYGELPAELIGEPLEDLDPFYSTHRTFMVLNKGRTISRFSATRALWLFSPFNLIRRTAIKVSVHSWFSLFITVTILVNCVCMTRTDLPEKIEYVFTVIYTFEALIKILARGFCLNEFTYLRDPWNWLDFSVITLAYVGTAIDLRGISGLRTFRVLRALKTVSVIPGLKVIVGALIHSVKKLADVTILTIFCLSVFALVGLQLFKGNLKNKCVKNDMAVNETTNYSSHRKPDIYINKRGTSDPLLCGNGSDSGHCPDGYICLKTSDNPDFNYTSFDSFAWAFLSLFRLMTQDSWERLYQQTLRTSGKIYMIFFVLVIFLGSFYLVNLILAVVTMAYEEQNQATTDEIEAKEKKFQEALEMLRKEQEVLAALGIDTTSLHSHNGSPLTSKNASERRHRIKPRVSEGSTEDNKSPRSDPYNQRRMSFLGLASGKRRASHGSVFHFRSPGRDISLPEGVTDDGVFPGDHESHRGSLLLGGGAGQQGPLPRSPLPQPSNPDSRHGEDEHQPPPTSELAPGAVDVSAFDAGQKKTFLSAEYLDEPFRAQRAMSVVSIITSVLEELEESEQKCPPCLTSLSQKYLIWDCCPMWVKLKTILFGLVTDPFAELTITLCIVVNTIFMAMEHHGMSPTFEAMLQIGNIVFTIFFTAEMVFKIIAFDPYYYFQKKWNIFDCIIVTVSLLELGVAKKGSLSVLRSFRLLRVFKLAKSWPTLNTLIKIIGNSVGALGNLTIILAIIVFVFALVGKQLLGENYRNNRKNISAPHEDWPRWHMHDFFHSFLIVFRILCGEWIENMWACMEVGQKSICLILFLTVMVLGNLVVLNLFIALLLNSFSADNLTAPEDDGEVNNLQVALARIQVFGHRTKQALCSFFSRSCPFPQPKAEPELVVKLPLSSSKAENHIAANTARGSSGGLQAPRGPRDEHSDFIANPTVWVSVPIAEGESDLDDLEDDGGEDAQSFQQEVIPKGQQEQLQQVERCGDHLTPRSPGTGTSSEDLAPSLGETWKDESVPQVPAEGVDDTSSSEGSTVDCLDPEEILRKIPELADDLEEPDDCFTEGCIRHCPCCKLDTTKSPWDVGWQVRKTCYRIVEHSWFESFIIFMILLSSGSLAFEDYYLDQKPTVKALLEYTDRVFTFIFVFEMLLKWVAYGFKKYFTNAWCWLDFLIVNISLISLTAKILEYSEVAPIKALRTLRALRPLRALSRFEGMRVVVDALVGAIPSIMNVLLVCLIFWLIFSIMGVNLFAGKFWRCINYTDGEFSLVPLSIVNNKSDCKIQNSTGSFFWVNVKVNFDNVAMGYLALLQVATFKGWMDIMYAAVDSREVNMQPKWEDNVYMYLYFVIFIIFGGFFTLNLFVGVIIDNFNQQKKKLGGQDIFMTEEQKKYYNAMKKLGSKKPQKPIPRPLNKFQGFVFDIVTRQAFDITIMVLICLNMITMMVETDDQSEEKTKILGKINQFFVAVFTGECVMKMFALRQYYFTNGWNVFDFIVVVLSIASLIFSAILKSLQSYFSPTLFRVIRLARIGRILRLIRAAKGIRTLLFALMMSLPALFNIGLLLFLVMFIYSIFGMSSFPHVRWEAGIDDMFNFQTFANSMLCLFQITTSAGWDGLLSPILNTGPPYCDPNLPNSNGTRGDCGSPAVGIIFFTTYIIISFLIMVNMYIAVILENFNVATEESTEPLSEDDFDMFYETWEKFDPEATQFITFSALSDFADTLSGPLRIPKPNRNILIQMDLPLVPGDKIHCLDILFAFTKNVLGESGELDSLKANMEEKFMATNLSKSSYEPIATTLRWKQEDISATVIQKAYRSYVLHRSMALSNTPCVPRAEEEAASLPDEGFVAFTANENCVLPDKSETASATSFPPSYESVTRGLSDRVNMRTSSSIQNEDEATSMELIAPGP

SMILES	inhibition in vivo at 30 mg/kg (osteoarthritic rats; [2]) [%]	inhibition in vivo at 100 mg/kg [1, 3] [%]	IC50 (recombinant human Nav1.7; [4]) [nM]	IC50 (recombinant human Nav1.8; [6]) [nM]	also measured
O=C(c1ccc2cc(Oc3ccc(C(F)F)cn3)ccc2n1)N1CCNCC1 [Example 14, (6-{[5-(difluoromethyl)pyridin-2-yl]oxy}quinolin-2-yl)(piperazin-1-yl)methanone]	81	44	–	–	–
O=C(N[C@H]1CCS(=O)(=O)C1)c1ccc2cc(Oc3ccc(C(F)(F)F)cn3)ccc2n1 [Example 4, N-[(3S)-1,1-dioxidotetrahydrothiophen-3-yl]-6-{[5-(trifluoromethyl)pyridin-2-yl]oxy}quinoline-2-carboxamide]	60	56	856	–	–
O=C(c1ccc2cc(Oc3ccc(C(F)(F)F)cn3)ccc2n1)N1CCNCC1 [Example 1, piperazin-1-yl(6-{[5-(trifluoromethyl)pyridin-2-yl]oxy}quinolin-2-yl)methanone]	64	49	–	–	–
O=C(c1ccc2cc(Oc3ccc(C(F)(F)F)cn3)ccc2n1)N1CC(N2CCOCC2)C1 [Example 6, [3-(morpholin-4-yl)azetidin-1-yl](6-{[5-(trifluoromethyl)pyridin-2-yl]oxy}quinolin-2-yl)methanone]	–	27	2930	–	inhibition in vivo at 10 mg/kg (osteoarthritic rats; [5]): 72%; IC50 (recombinant human Nav1.8): 4610 nM
O=C(c1ccc2cc(Oc3ccc(C(F)(F)F)cn3)ccc2n1)N1CCC(N2CCOCC2)CC1 [Example 11, [4-(morpholin-4-yl)piperidin-1-yl](6-{[5-(trifluoromethyl)pyridin-2-yl]oxy}quinolin-2-yl)methanone]	–	34	1610	1690	inhibition in vivo at 10 mg/kg (osteoarthritic rats; [5]): 72%
O=C(c1ccc2cc(Oc3ccc(C(F)(F)F)cn3)ccc2n1)N1CC[C@H](F)C1 [Example 51, [(3S)-3-fluoropyrrolidin-1-yl](6-{[5-(trifluoromethyl)pyridin-2-yl]oxy}quinolin-2-yl)methanone]	52	90	2250	–	–
COCCNC(=O)c1ccc2cc(Oc3ccc(C(F)(F)F)cn3)ccc2n1 [Example 22, N-(2-methoxyethyl)-6-{[5-(trifluoromethyl)pyridin-2-yl]oxy}quinoline-2-carboxamide]	73	72	1980	3540	–
COC[C@H]1CN(C(=O)c2ccc3cc(Oc4ccc(C(F)(F)F)cn4)ccc3n2)CCN1 [Example 31, [(3R)-3-(methoxymethyl)piperazin-1-yl](6-{[5-(trifluoromethyl)pyridin-2-yl]oxy}quinolin-2-yl)methanone]	94	64	–	1860	IC50 (recombinant human Nav1.7): 619 nM
O=C(NC1CCS(=O)(=O)C1)c1ccc2cc(Oc3ccc(C(F)(F)F)cn3)ccc2n1 (stereo not drawn) [Example 2, N-(1,1-dioxidotetrahydrothiophen-3-yl)-6-{[5-(trifluoromethyl)pyridin-2-yl]oxy}quinoline-2-carboxamide]	85	54	504	648	–
O=C(c1ccc2cc(Oc3ccc(C(F)(F)F)cn3)ccc2n1)N1C[C@@H](F)C[C@H]1CO [Example 50, [(2S,4S)-4-fluoro-2-(hydroxymethyl)pyrrolidin-1-yl](6-{[5-(trifluoromethyl)pyridin-2-yl]oxy}quinolin-2-yl)methanone]	81	94	12200	–	–
O=C(c1ccc2cc(Oc3ccc(C(F)(F)F)cn3)ccc2n1)N1CC[C@@H](F)C1 [Example 52, [(3R)-3-fluoropyrrolidin-1-yl](6-{[5-(trifluoromethyl)pyridin-2-yl]oxy}quinolin-2-yl)methanone]	86	81	2980	–	–
CCN1CCC(N(CC)C(=O)c2ccc3cc(Oc4ccc(C(F)(F)F)cn4)ccc3n2)CC1=O (stereo not drawn) [Example 61, N-ethyl-N-(1-ethyl-2-oxopiperidin-4-yl)-6-{[5-(trifluoromethyl)pyridin-2-yl]oxy}quinoline-2-carboxamide]	–	–	556	1140	inhibition in vivo at 10 mg/kg (osteoarthritic rats; [5]): 61%
O=C(c1ccc2cc(Oc3ccc(C(F)(F)F)cn3)ccc2n1)N1CCC(F)C1 (stereo not drawn) [Example 35, (3-fluoropyrrolidin-1-yl)(6-{[5-(trifluoromethyl)pyridin-2-yl]oxy}quinolin-2-yl)methanone]	–	74	1270	–	inhibition in vivo at 10 mg/kg (osteoarthritic rats; [5]): 79%
CN1CC(NC(=O)c2ccc3cc(Oc4ccc(C(F)(F)F)cn4)ccc3n2)CC1=O (single isomer, unassigned) [Example 74, N-[(3S*)-1-methyl-5-oxopyrrolidin-3-yl]-6-{[5-(trifluoromethyl)pyridin-2-yl]oxy}quinoline-2-carboxamide]	–	–	863	1880	OA MPE (osteoarthritic rats; [2]): 69%
O=C(NCC(F)(F)F)c1ccc2cc(Oc3ccc(C(F)(F)F)cn3)ccc2n1 [Example 344, N-(2,2,2-trifluoroethyl)-6-{[5-(trifluoromethyl)pyridin-2-yl]oxy}quinoline-2-carboxamide]	59	76	2100	670	–
O=C1C[C@@H](NC(=O)c2ccc3cc(Oc4ccc(C(F)(F)F)cn4)ccc3n2)CN1 [Example 58, N-[(3R)-5-oxopyrrolidin-3-yl]-6-{[5-(trifluoromethyl)pyridin-2-yl]oxy}quinoline-2-carboxamide]	64	–	1030	2840	–
CS(=O)(=O)CCCNC(=O)c1ccc2cc(Oc3ccc(C(F)(F)F)cn3)ccc2n1 [Example 65, N-[3-(methylsulfonyl)propyl]-6-{[5-(trifluoromethyl)pyridin-2-yl]oxy}quinoline-2-carboxamide]	63	–	–	4230	IC50 (recombinant human Nav1.7): 2250 nM
O=C(NC1CC(F)(F)C1)c1ccc2cc(Oc3ccc(C(F)(F)F)cn3)ccc2n1 [Example 59, N-(3,3-difluorocyclobutyl)-6-{[5-(trifluoromethyl)pyridin-2-yl]oxy}quinoline-2-carboxamide]	83	84	–	–	IC50 (recombinant human Nav1.7): 1700 nM
O=C(c1ccc2cc(Oc3ccc(OC(F)(F)F)cn3)ccc2n1)N1CC[C@@H](F)C1 [Example 301, [(3R)-3-fluoropyrrolidin-1-yl](6-{[5-(trifluoromethoxy)pyridin-2-yl]oxy}quinolin-2-yl)methanone]	58	–	3120	1400	–
O=C(NC1CCC(F)(F)CC1)c1ccc2cc(Oc3ccc(C(F)(F)F)cn3)ccc2n1 [Example 23, N-(4,4-difluorocyclohexyl)-6-{[5-(trifluoromethyl)pyridin-2-yl]oxy}quinoline-2-carboxamide]	83	–	1450	> 20000	–
O=C(c1ccc2cc(Oc3ccc(C(F)(F)F)cn3)ccc2n1)N1CC(O)C1 [Example 18, (3-hydroxyazetidin-1-yl)(6-{[5-(trifluoromethyl)pyridin-2-yl]oxy}quinolin-2-yl)methanone]	–	–	2200	–	inhibition in vivo at 10 mg/kg (osteoarthritic rats; [5]): 23%; IC50 (recombinant human Nav1.8): 5340 nM
O=C(c1ccc2cc(Oc3ccc(C(F)(F)F)cn3)ccc2n1)N1CCCC1 [Example 10, pyrrolidin-1-yl(6-{[5-(trifluoromethyl)pyridin-2-yl]oxy}quinolin-2-yl)methanone]	–	–	–	–	inhibition in vivo at 30 mg/kg (osteoarthritic rats): 48%; inhibition in vivo at 100 mg/kg ([1]; Rattus norvegicus): 35%
O=C(c1ccc2cc(Oc3ccc(C(F)(F)F)cn3)ccc2n1)N1CCN2CC(F)(F)C[C@H]2C1 [Example 53, [(8aS)-7,7-difluorohexahydropyrrolo[1,2-a]pyrazin-2(1H)-yl](6-{[5-(trifluoromethyl)pyridin-2-yl]oxy}quinolin-2-yl)methanone]	70	–	3260	11000	–
